The values that follow come from paper PMC3596083 (Beilstein Journal of Organic Chemistry, 2013).

Series [1] has as its target T1, GABAA-receptors (α1-GFP + β2 + γ2Long) expressed in CHO cells (Homo sapiens, UniProt P14867+P47870).
T1 construct: expressed in transfected cells; host or cells: CHO-K1 (ATCC), transient transfection with Lipofectamine 2000
Kind of series: Whole-cell patch-clamp recordings with fast perfusion on CHO cells transiently expressing GABAA-receptors. Type of series: cell-based. The note with it: for changes in the current: application of 10 mM. As to the method: (§1) The investigations in this study were performed by using a standard ^36Cl^−-flux assay in mouse brain synaptoneurosomes. […] Moreover, ^36Cl^−-flux assays were carried out by using a 15 s incubation time. […] The activity of synthesized compounds was tested by using CHO cells transiently expressing GABAA-receptors in the configuration (α1-GFP + β2 + γ2Long). To analyze the functional properties of the compounds, we performed monitoring of ionic currents using whole-cell patch-clamp techniques. […] Then we applied different concentrations of the studied compounds and estimated the minimal concentration that induced currents and, if possible, their EC50.
Cell culture and transient transfection
Chinese Hamster Ovary (CHO-K1) cells were obtained from the American Type Culture Collection (ATCC, Molsheim, France) and maintained as previously described. One day before the transfection, cells were plated on the coverslips (12–14 mm in diameter), which were placed inside 35 mm cell culture dishes with 2 mL of medium. CHO cells were transfected with a total 3 µg cDNA of α1-GFP + β2 + γ2Long (ratio 1:1:1) using the Lipofectamine 2000 transfection protocol (Life Technology, USA). Three hours after the initial exposure of the cells to the cDNAs, a fresh […] solution replaced the old one.
Electrophysiological recordings were performed from fluorescent cells 48–72 hours after […]
Electrophysiological recordings
Whole-cell recordings were conducted on CHO-K1 cells at room temperature (20–25 °C) using an EPC-9 amplifier (HEKA Elektronik, Germany). Cells were continuously superfused with external solution containing (mM): NaCl 140, CaCl2 2, KCl 2.8, MgCl2 1, HEPES 20, glucose 10; pH 7.3; 320–330 mOsm. The patch pipette solution contained (mM): CsCl 140, MgCl2 2, MgATP 2, NaGTP 0.4, HEPES/CsOH 10, BAPTA/KOH 20; pH 7.3; 290 mOsm.
Pipettes were pulled from borosilicate glass capillaries (Harvard Apparatus Ltd, USA) and had resistances of 5–8 MΩ.
For rapid replacement of solutions, a system of two parallel rectangular tubes, 100 µm in diameter, located at a distance of 40–50 µm from the tested cell, was used. The movement of tubes was controlled by a computer-driven fast exchange system (SF 77A Perfusion Fast-Step, Warner, USA). As measured by open tip electrode controls (1/10 NaCl), in this system a 20–80% solution exchange time was within 2–3 ms. Cells with a low input resistance (<150 MΩ) were excluded from analysis.
For quantitative estimations of agonist action, dose-response relationships were fitted by the […]
I = Imax / (1 + (EC50/ [C])n) where I is the current amplitude induced by the agonist at concentration [C], Imax is the maximum response of the cell, n is the Hill coefficient and EC50 is the concentration for which a half-maximum response is induced. Concentration-response relationships were constructed using at least four points. […]
A general note: In patch-clamp work, channel activity is measured electrically.

The test system of series [2] is GABAA-receptors. Details: method as in PMID 12113824. The note with it: cited from earlier work; for agonist character on GABAA-channels: chloride-flux assays on synaptoneurosomes.
Series [3] concerns GABAA-receptors. In words: Standard 36Cl−-flux assay in mouse brain synaptoneurosomes (Carlier et al.). The series is classed as cell-based. As to conditions: ratio of the EC50 values of ref 13. As to the method: as §1
The mark [4] stands for this setting: whole-cell currents, mean ± error over x tested cells, read-out: EC50, mean.

Values joined by “and” are separate entries in the source; they are usually repeats but may differ in a detail not shown here. Equal values may be shown once. “Also recorded” adds a separate entry of the source. Read-outs that look alike come from different tables or passages of the source.

T1 sequence (P14867 28-456): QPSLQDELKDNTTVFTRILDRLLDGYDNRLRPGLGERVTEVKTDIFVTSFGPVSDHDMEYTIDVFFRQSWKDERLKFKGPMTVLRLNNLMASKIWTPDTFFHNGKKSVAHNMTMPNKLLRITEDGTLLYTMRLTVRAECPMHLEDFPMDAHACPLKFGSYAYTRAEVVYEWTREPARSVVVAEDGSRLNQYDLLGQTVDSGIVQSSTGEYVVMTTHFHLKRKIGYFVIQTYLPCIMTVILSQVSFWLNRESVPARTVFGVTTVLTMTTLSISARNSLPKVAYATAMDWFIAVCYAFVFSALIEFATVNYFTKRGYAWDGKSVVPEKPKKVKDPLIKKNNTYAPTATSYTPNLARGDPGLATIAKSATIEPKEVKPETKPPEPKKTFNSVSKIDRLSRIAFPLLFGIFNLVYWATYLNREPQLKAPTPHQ
T1 sequence (P47870 25-512 limits assumed): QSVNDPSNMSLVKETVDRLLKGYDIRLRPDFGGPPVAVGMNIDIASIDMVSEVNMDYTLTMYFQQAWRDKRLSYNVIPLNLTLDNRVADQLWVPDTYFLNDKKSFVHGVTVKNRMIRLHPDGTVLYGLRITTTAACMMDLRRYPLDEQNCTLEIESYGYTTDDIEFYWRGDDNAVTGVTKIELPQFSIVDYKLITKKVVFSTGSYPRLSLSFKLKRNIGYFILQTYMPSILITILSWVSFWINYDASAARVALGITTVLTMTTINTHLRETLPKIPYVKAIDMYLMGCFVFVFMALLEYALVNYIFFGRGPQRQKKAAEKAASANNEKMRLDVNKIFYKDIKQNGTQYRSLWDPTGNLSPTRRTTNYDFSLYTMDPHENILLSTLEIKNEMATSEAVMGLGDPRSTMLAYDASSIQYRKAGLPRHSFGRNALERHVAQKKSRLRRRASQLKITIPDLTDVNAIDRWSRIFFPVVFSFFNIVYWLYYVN
T1 sequence (P18507 40-475 partner): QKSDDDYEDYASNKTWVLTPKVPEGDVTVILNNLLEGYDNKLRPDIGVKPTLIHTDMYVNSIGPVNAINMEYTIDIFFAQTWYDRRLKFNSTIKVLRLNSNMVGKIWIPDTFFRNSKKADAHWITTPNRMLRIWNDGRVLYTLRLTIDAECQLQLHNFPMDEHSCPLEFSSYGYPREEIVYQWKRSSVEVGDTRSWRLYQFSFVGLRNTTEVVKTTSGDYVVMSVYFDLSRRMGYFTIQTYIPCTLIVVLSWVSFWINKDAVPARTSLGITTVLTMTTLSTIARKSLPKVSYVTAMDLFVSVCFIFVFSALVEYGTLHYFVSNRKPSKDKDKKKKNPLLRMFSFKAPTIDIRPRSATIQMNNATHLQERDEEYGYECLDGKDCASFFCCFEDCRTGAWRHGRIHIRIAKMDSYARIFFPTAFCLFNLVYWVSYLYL

As for `NCCCC(=O)NCCCCNC(=O)CCCN` [4a], the “changes in the current” value in series [1] (x = 4) is 0 pA. Further, the “agonist character on GABAA-channels” value in series [2] was “partial, full or superagonists”.

As for `Cl.Cl.NCCCCCCNC(=O)CCCN` [7d], the melting point lay in the range of 147 to 150 °C. Further, in series [1], the activation threshold result was “about 100 µM”. The EC50 in series [1] (example concentration-response curve (Figures 2B, 5C), read-out: EC50 from the concentration dependence shown in the figure) is ~5 mM and 5.1 mM. Further, the EC50 in series [1] (setting [4]) was 5.25 ± 0.56 mM.

Regarding `Cl.Cl.NCCCC(=O)NCc1ccc(CN)cc1`, the melting point lay in the range of 251 to 253 °C.

As to `NCCCC(=O)NCCCCCCCCNC(=O)CCCN` [4c], the “induction of whole-cell currents” value in series [1] (concentration of 15 mM) is “not able to induce currents”. For the same compound, in series [2], the “agonist character on GABAA-channels” value is given as “partial, full or superagonists”.

For `Cl.Cl.NCCCNC(=O)CCCN` [7b], the melting point was 140 to 142 °C. Also, the “currents induced compared with GABA” value in series [1] (at concentrations of 10 mM) was “comparable to those for GABA 30–100 µM”. The EC50 in series [1] (setting [4]) came to 1.08 ± 0.14 mM.

`Cl.Cl.NCCCCCCCCNC(=O)CCCN` [7e] returned a melting point of 136 to 138 °C. The current amplitude in series [1] (at 5 mM, x = 3) was 10–20 pA.

In turn, `Cl.Cl.NCCCC(=O)NCCN` [7a] gave a melting point of 144 to 146 °C. The current amplitude in series [1] (at 2.6 mM, x = 4) is listed as 10–30 pA. Also, in series [2], the “agonist character on GABAA-channels” value is given as “partial, full or superagonists”.

Turning to `NCCCC(=O)NCCCCCCNC(=O)CCCN` [4b], the “changes in the current” value in series [1] (x = 4) came to 0 pA. Besides, the “EC50 fold higher than for GABA” value in series [3] is “more than 30 fold”. Further, the EC50 in series [2] (36Cl−-flux, mouse brain synaptoneurosomes, 15 s incubation, read-out: EC50 (Cl− uptake)) is 733 µM. Moreover, the “maximum Cl− uptake higher than that achieved by GABA” value in series [2] (36Cl−-flux, mouse brain synaptoneurosomes) is “about 50%”. The “agonist character on GABAA-channels” value in series [2] is “superagonist; also recorded: partial, full or superagonists”.

Turning to `NCCCCNC(=O)CCCN` [7c], the EC50 in series [1] (setting [4]) came to 1.75 ± 0.33 mM. In addition, the “agonist character on GABAA-channels” value in series [2] was “partial, full or superagonists”.

As a reminder, the melting point is the temperature of the solid-liquid transition.
